How the values were obtained:
wt microglia = assay: Microglial phagocytosis of aggregated fluorescein-labeled Aβ1-42 (flow cytometry), wt microglia; format: cell-based, mouse; conditions: for Aβ1-42 uptake (percent of wt controls): n=6
Method: (§1) Microglial Aβ phagocytosis. At DIV 14, microglia were seeded in 6-well plates at 1.5×10^5 cells per well in microglial culture medium. After 2hr seeding, medium was changed with 1.5 ml of serum-free DMEM medium containing penicillin and streptomycin. To make aggregated Aβ for phagocytosis, Aβ was dissolved in 2 mM NaOH and was diluted into 10 μM of stock solution (100×) in PBS followed by incubation at 37° C. for 2 hr and monitored by turbidity. For studying signaling pathways involved in Aβ phagocytosis, some microglia were pre-treated for 1 hr with AH6809 (20 μM), butaprost ([…]), SC51089 (10 μM), PTPE2 (20 μM), forskolin (50 μM), or BIM (10 μM) prior to treatment with aggregated fluorescein labeled AP1-42 (100 nM). After 24hr incubation of Aβ, cells were washed with PBS followed by trypsinization (0.05%) and centrifugation. Cells were then re-suspended in PBS and subjected to flow cytometry. Flow cytometer (FACScan, BD Biosciences, San Jose, Calif.) set at un-gated 10,000 cells per measure was used to analyze Aβ uptake as an indication of Aβ phagocytosis. Data were analyzed using Summit Mo-Flo software (Cytomation, Fort Collins, Colo.). Phagocytosis was presented as percent of mean FITC intensity in wt controls treated with Aβ. Some cells were plated onto chambered slides at 1×10^4 for assessing cellular uptake of Aβ using fluorescent microscope (Nikon TE200).

EP2^−/− microglia = assay: Microglial phagocytosis of aggregated fluorescein-labeled Aβ1-42 (flow cytometry), EP2−/− microglia; format: cell-based, mouse
Method: as §1

[1] = BIM at 10 μM, 1 hr pre-treatment, 100 nM fluorescein-Aβ1-42, 24 hr

In the case of `CCCC1([C@H](O)C/C=C/[C@H]2[C@H](O)CC(=O)[C@@H]2CCCCCCC(=O)OC)CCC1` [butaprost], the “Aβ1-42 uptake (percent of wt controls)” value (wt microglia; 1 μM) is reported as 98±3%, the “Aβ1-42 uptake (percent of wt controls)” value (wt microglia; 10 μM) is reported as 104±2% and the “Aβ1-42 uptake (percent of wt controls)” value (wt microglia; 50 μM) is reported as 92±2%.

`O=C(O)CCC/C=C\C[C@H]1C(=O)C[C@@H](O)[C@@H]1/C=C/[C@@H](O)CCc1ccccc1` [PTPE2, 17-phenyl trinor prostaglandin E2] was tested, and the “Effect on Aβ1-42 phagocytosis” value (wt microglia; PTPE2 at 20 μM) was “without effect” and the “Effect on Aβ1-42 phagocytosis” value (EP2^−/− microglia; PTPE2 at 20 μM) was “without effect”.

In the case of `O=S(=O)(NCCNC/C=C/c1ccc(Br)cc1)c1cccc2cnccc12` [H89], the “Effect on Aβ1-42 uptake” value (wt microglia; PKA inhibitor) is reported as “did not enhanced Aβ1-42 uptake”.

For bisindolylmaleimide [BIM], the “Aβ1-42 uptake, % of wt basal Aβ1-42 uptake” value (wt microglia; [1]) was 36±4% and the “Aβ1-42 uptake, % of wt basal Aβ1-42 uptake” value (EP2^−/− microglia; [1]) was 35±4%.

In the case of SC51089, the “Effect on Aβ1-42 phagocytosis” value (wt microglia; SC51089 at 10 μM) is reported as “without effect” and the “Effect on Aβ1-42 phagocytosis” value (EP2^−/− microglia; SC51089 at 10 μM) is reported as “without effect”.
